In patent publication US9439910B2, “Fe(III)-pyrazine complex compounds for treatment and prophylaxis of iron-deficiency phenomena and iron-deficiency anaemia” (VIFOR (INTERNATIONAL) AG, priority 2012, dated 2016):

Test system: Male NMRI (SPF) mice
Assay: Fe utilization in mouse model (low-iron diet, oral administration by stomach tube)
Type: in vivo
Details: for Utilization n 15 d: mice fed low-iron diet (approx. 5 ppm iron) approx. 3 weeks, 2 mg iron/kg body weight/day by stomach tube, days 1-5 and 8-12, utilization on day 15 calculated from hemoglobin increase and body weight increase; for iron utilization compared to the pyridine comparative compound: same mouse model, comparison in words with the comparative example
Protocol: The excellent Fe utilizations that can be accomplished through the Fe complexes according to the invention were measured by means of the following mouse model. Male NMRI (SPF) mice (approximately 3 weeks old) were fed a low-iron diet (approx. 5 ppm iron) for approximately 3 weeks. The iron complexes were then administered to them by means of a stomach tube (2 mg iron/kg body weight/day) for 2 times 5 days, with an interruption of 2 days (days 1-5 and 8-12). 6 mice were the control group (negative control) and were administered with water instead. Utilization on day 15 was calculated from the hemoglobin increase and the body weight increase in accordance with the formula [formula]

| Substance | Utilization n 15 d [abs. %] | iron utilization compared to the pyridine comparative compound |
| --- | --- | --- |
| Tris-(pyrazine-2-ol 1-oxide)iron(III)-complex [Example 1] | 56 | significantly improved iron utilization |
| Tris-(3,5,6-trimethylpyrazine-2-ol-1-oxide)iron(III)-complex [Example 4] | 32 | improved iron utilization |
| Tris-(5-methylpyrazine-2-ol-1-oxide)iron(III)-complex [Example 5] | 37 | improved iron utilization |
| Tris-(3-methylpyrazine-2-ol-1-oxide)iron(III)-complex [Example 3] | 77 | improved iron utilization |
| Tris-(3,6-dimethylpyrazine-2-ol-1-oxide)-iron(III)-complex [Example 10] | 58 | improved iron utilization |
| Tris-(5,6-dimethyl pyrazine-2-ol 1-oxide)iron(III)-complex [Example 2] | 61 | improved iron utilization |
